Experimental data published in patent US20040171089A1, “High-throughput screening assay for identifying substances capable of modulating cell survival and/or proliferation” (priority 2001, published 2004).

Legend:
[1] = test system: cerebellar granule neurones; test: Fura-2 calcium imaging, cerebellar granule neurones; type: cell-based, rat; details: 3 μM; cerebellar granule cells
Procedure: Cerebellar granule cells were prepared from 6-7 day post natal rats as previously described (see Courtney, M. J., Lambert, J. J. and Nicholls, D. G. [1990] J. Neuroscience 10: 3873-3879).
(§1) For calcium imaging experiments cells were plated onto poly-L-lysine coated coverslips (13 mm). Single cell imaging was performed utilizing a MiraCal Imaging facility (Life Science Resources, Cambridge, U.K.) with a Nikon Diaphot-TMD inverted epifluorescence microscope equipped with a ×40 oil immersion objective and Sutter filter wheel. The imager was equipped with a Lambert intensifier 1187 (Life Sciences Resources) providing a ×30 enhancement of the fluorescent signal, thus limiting phototoxicity.
Fura-2 acetoxymethyl ester (fura-2 AM) incubations with the cells were performed at 37° C. in a medium containing (in mM): 120 NaCl, 3.5 KCl, 0.4 KH2PO4, 5 NaHCO3, 1.2 Na2SO4, 15 glucose, 1.2 MgCl2, 1 CaCl2, and 20 TES [N-tris(hydroxymethyl) methyl-2-aminoethane sulphonic acid] pH adjusted to 7.4 with NaOH. […] Cells were then illuminated alternately at 340 and 380 nm with the emitted 505 nm light being detected by a photomultiplier. […] Changes of intracellular calcium were quantified as the percentage increase of the fluorescent ratio (determined at ˜505 nm) obtained by exciting the test cells alternatively at 340 nm (optimal for calcium bound dye) and 380 nm.

sigma-1 sites = sigma-1 sites (Homo sapiens, UniProt Q99720); details: Whittemore et al 1997; read-out: inhibition constant for sigma-1 sites; cited from earlier work
Sequence of sigma-1 sites (Q99720 whole entry): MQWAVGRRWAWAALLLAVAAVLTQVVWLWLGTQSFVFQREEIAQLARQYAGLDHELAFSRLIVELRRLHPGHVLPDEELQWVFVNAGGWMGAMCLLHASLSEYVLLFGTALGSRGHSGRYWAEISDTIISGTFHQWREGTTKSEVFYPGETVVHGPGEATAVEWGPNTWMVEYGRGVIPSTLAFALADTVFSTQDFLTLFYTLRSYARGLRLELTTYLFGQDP

PKB/Akt = test: PKB immunoprecipitation activity assay in MDA MB 468 cells; type: cell-based, human
Procedure: All cells received 1% DMSOvehiclefor the duration of stimulation. […] Data pointsshown are the mean PKB activity relative to vehicle treated cells from three independently treated dishes of cells with error barsindicating the standard deviation. As controls, cells were treatedwith the PI 3-kinase inhibitor wortmannin for 30 minutes orstimulated with serum for 5 minutes; and
MDA MB 468 cells were exposed to the sigma antagonist IPAG at 100 μM and 10 μM concentrations for periods of time up to 4 hours. At intervals, cells were lysed and then subjected to PKB immunoprecipitation, precisely as has been described previously (Leslie et al., 2001, Biochemical Journal, Vol 357 p427). This method, which is recognised in the art, provides a quantitative measure of PKB activity. FIG. 5c depicts a concentration- and time-dependent decline in PKB activity when cells were exposed to IPAG.

MDA MB 468 cells = test: Fura-2 calcium imaging, MDA MB 468 cells; type: cell-based, human; details: for % increase of cytosolic calcium / % increase of cytosolic calcium (peak 340/380 nm fura-2 ratio): MDA 468 cells
Procedure: Human mammary carcinoma (MDA MB 468) cells were obtained from ATCC, Manassas, Va., USA; catalogue number HTB-132; cells were grown in accordance with the manufacturer's instructions.
as §1
Fura-2 acetoxymethyl ester (fura-2 AM) incubations with the cells were performed at 37° C. in a medium containing (in mM): 120 NaCl, 3.5 KCl, 0.4 KH2PO4, 5 NaHCO3, 1.2 Na2SO4, 15 glucose, 1.2 MgCl2, 1 CaCl2, and 20 TES [N-tris(hydroxymethyl) methyl-2-aminoethane sulphonic acid] pH adjusted to 7.4 with NaOH. Typically cells were incubated in 3 μM fura-2 AM for 25 min., which permitted sufficient accumulation of free fura-2 in the cell cytoplasm. Cells were then illuminated alternately at 340 and 380 nm with the emitted 505 nm light being detected by a photomultiplier. Free fura emits maximally when excited at 380 nm, whilst the calcium bound fura has a maximal emission when excited at 340 nm. Thus the ratio of emission when alternately excited at 340/380 nm is a measure of the calcium concentration in equilibrium with the chelator. Changes of intracellular calcium were quantified as the percentage increase of the fluorescent ratio (determined at ˜505 nm) obtained by exciting the test cells alternatively at 340 nm (optimal for calcium bound dye) and 380 nm.

adult dermal fibroblasts = test: MTS cell viability/proliferation assay, adult dermal fibroblasts; type: cell-based, human; details: 1-10 μM
Procedure: This was carried out using an MTS assay (reagents from Promega Corporation, Madison Wis., USA) which is a modification of the MTT assay (as described in Jacobson et al, 1994 EMBO J Vol 13 pp1899-1910). The assay depends on conversion of the MTS tetrazolium compound to a coloured formazan product in metabolically active cells; it is therefore an assay of viable cell number. A decline in values implies cell killing as long as cell disappearance by apoptosis in untreated cell populations is absent or negligible (as with most healthy primary cell populations).
Cells were seeded in the range 1.5×10^5-1.8×10^5 cells per ml of culture medium in 96 well microtitre plates and allowed to attach in a humidifed atmosphere of 5% CO2 in air at 37 deg C. Drugs were added 18-24 hours later and cell viability/proliferation measured at time intervals up to 48-72 hours post-drug addition when the experiment was terminated. Mean (±SE) values at each time point were obtained from wells in triplicate.
Cell viability was measured as follows: 20 μl of MTS solution (Promega) was added to wells and incubated at 37 deg C. for 3 hours during which time a coloured formazan product is generated in viable cells. […] Viable cell number was then measured by reading absorbance at 490 nm in a Dynex microtitre plate reader. […]

N=C(Nc1ccc(I)cc1)NC1C2CC3CC(C2)CC1C3 (stereo not drawn) [IPAG, 1-(4-iodophenyl)-3-(2-adamantyl)guanidine]
% increase of cytosolic calcium (peak 340/380 nm fura-2 ratio) [1]: 20±2% | Ki (sigma-1 sites): ~2.8 nM | PKB activity (PKB/Akt; 10 μM, up to 4 hours): later decline in PKB activity | PKB activity (PKB/Akt; 100 μM, within 5 minutes, sustained to at least 30 minutes): profoundly inhibited PKB activity | % increase of cytosolic calcium (MDA MB 468 cells; 1 μM, 100 μM extracellular calcium): 40±14% | % increase of cytosolic calcium (MDA MB 468 cells; 1 μM, 1 mM extracellular calcium (FIG. 3a experiment)): 157±10% | % increase of cytosolic calcium (peak 340/380 nm fura-2 ratio) (MDA MB 468 cells; 1 μM): 54±7% | % increase of cytosolic calcium (MDA MB 468 cells; 1 μM, absence of extracellular calcium): 1±0.4% | % increase of cytosolic calcium (peak 340/380 nm fura-2 ratio) (MDA MB 468 cells; 3 μM): 112±8% | % increase of cytosolic calcium (MDA MB 468 cells; 10 μM, 100 μM extracellular calcium): 237±12% | time of decline of intracellular calcium to baseline (MDA MB 468 cells; 10 μM, 0.1 mM extracellular calcium, MDA MB 468 cells): ≤ 10 min | % increase of cytosolic calcium (MDA MB 468 cells; 10 μM, 1 mM extracellular calcium (FIG. 3a experiment)): 230±12% | time calcium elevation remains close to peak levels (MDA MB 468 cells; 10 μM, 1 mM extracellular calcium, MDA MB 468 cells): at least 30 minutes | % increase of cytosolic calcium (peak 340/380 nm fura-2 ratio) (MDA MB 468 cells; 10 μM): 125±7% | time to peak effect on cytosolic calcium (MDA MB 468 cells; 10 μM, MDA MB 468 cells): ≤ 5 min | % increase of cytosolic calcium (MDA MB 468 cells; 10 μM, absence of extracellular calcium): 4±2% | effect on cytosolic calcium levels (in words) (MDA MB 468 cells; MDA MB 468 cells, FIG. 2a: IPAG 1-10 μM, rimcazole 10-30 μM, (+)-SKF 10,047 10 μM, (+)-pentazocine 10-30 μM, ibogaine 10-50 μM): increase cytosolic calcium levels | Cytotoxicity (adult dermal fibroblasts): not cytotoxic
